The text below walks through data of PMC3155652 (Journal of inorganic biochemistry, 2011).

Ends that are not written are not given here.

The conditions of assay [1]: cited from earlier work; for rate of electron transfer to heme from FMN: ref [49]; for interdomain electron transfer FMN to heme: laser flash photolysis, in the presence of CaM, ref [50], [51].
The target in assay [2] is T1, holo Alexa-CaM (Homo sapiens, UniProt P0DP23, T111W/T35C). In kind it is binding. As to conditions: 2 mM EDTA, stopped-flow.
Another assay has as its system holo CaM. To be noted: holo CaM to immobilized target peptide, ref [21]; cited from earlier work.
For assay [3], the target named is T1, holo Alexa-CaM. Nature of the assay: Stopped-flow association kinetics of NOS target peptides with holo Alexa-CaM. In kind it is binding. To be noted: pH 8.
The target in assay [4] is T1, holo Alexa-CaM. Nature of the assay: Apparent Kd calculated as koff/kon. In kind it is binding.

With iNOS: inducible NOS, the “rate of electron transfer to heme from FMN” value (“rate of electron transfer” for short) in assay [1] was 11 s⁻¹. As to “rat nNOS: rat neuronal NOS in the presence of CaM”, the “interdomain electron transfer FMN to heme” value in assay [1] was 36 s⁻¹. In the case of `CC[C@H](C)[C@H](NC(=O)[C@H](CCCCN)NC(=O)[C@@H](NC(=O)[C@H](C)NC(=O)[C@H](CC(N)=O)NC(=O)[C@H](C)NC(=O)[C@@H](NC(=O)[C@H](CCC(=O)O)NC(=O)[C@H](CCCCN)NC(=O)[C@H](Cc1ccccc1)NC(=O)[C@@H](NC(=O)[C@H](CCCCN)NC(=O)[C@H](CCCCN)NC(=O)[C@@H](N)CCCNC(=N)N)[C@@H](C)O)C(C)C)C(C)C)C(=O)N[C@@H](CO)C(=O)N[C@@H](C)C(=O)N[C@@H](CO)C(=O)N[C@@H](CC(C)C)C(=O)N[C@@H](CCSC)C(=O)NCC(=O)O` [eNOS492–511], the “fast phase, share of overall FW110 increase” value at holo Alexa-CaM [2] turned out to be 83%. As for “nNOS725–750: immobilized nNOS target peptide of previous SPR study (NGTPTKRRAIGFKKLAEAVKFSAKLM; UniProt P29475 725-750, looked up, fragment)”, the “kon (binding rate by SPR)” value in the assay on holo CaM was 158000 M⁻¹ s⁻¹.

For the molecule human iNOS: human inducible NOS, the “interdomain electron transfer FMN to heme” value in assay [1] is 34 s⁻¹. For the molecule RRAIGFKKLAEAVKFSAKLMGGAM [nNOS726–749], the association rate constant (kon) (usually a measure of how fast the partners come together) at holo Alexa-CaM [3] was determined as 6.6e+08 M⁻¹ s⁻¹. For the same molecule, the “fast phase, share of overall FW110 increase” value on holo Alexa-CaM [2] worked out at 81%. Moreover, the Kd on holo Alexa-CaM [4] was 5.6 nM. For eNOS: endothelial NOS, the “rate of electron transfer” value in assay [1] is 2 to 5 s⁻¹.

B1: nNOS: neuronal NOS (protein, UniProt P29475 1-1434, looked up)
Nitric oxide synthase 1: MEDHMFGVQQIQPNVISVRLFKRKVGGLGFLVKERVSKPPVIISDLIRGGAAEQSGLIQAGDIILAVNGRPLVDLSYDSALEVLRGIASETHVVLILRGPEGFTTHLETTFTGDGTPKTIRVTQPLGPPTKAVDLSHQPPAGKEQPLAVDGASGPGNGPQHAYDDGQEAGSLPHANGLAPRPPGQDPAKKATRVSLQGRGENNELLKEIEPVLSLLTSGSRGVKGGAPAKAEMKDMGIQVDRDLDGKSHKPLPLGVENDRVFNDLWGKGNVPVVLNNPYSEKEQPPTSGKQSPTKNGSPSKCPRFLKVKNWETEVVLTDTLHLKSTLETGCTEYICMGSIMHPSQHARRPEDVRTKGQLFPLAKEFIDQYYSSIKRFGSKAHMERLEEVNKEIDTTSTYQLKDTELIYGAKHAWRNASRCVGRIQWSKLQVFDARDCTTAHGMFNYICNHVKYATNKGNLRSAITIFPQRTDGKHDFRVWNSQLIRYAGYKQPDGSTLGDPANVQFTEICIQQGWKPPRGRFDVLPLLLQANGNDPELFQIPPELVLEVPIRHPKFEWFKDLGLKWYGLPAVSNMLLEIGGLEFSACPFSGWYMGTEIGVRDYCDNSRYNILEEVAKKMNLDMRKTSSLWKDQALVEINIAVLYSFQSDKVTIVDHHSATESFIKHMENEYRCRGGCPADWVWIVPPMSGSITPVFHQEMLNYRLTPSFEYQPDPWNTHVWKGTNGTPTKRRAIGFKKLAEAVKFSAKLMGQAMAKRVKATILYATETGKSQAYAKTLCEIFKHAFDAKVMSMEEYDIVHLEHETLVLVVTSTFGNGDPPENGEKFGCALMEMRHPNSVQEERKSYKVRFNSVSSYSDSQKSSGDGPDLRDNFESAGPLANVRFSVFGLGSRAYPHFCAFGHAVDTLLEELGGERILKMREGDELCGQEEAFRTWAKKVFKAACDVFCVGDDVNIEKANNSLISNDRSWKRNKFRLTFVAEAPELTQGLSNVHKKRVSAARLLSRQNLQSPKSSRSTIFVRLHTNGSQELQYQPGDHLGVFPGNHEDLVNALIERLEDAPPVNQMVKVELLEERNTALGVISNWTDELRLPPCTIFQAFKYYLDITTPPTPLQLQQFASLATSEKEKQRLLVLSKGLQEYEEWKWGKNPTIVEVLEEFPSIQMPATLLLTQLSLLQPRYYSISSSPDMYPDEVHLTVAIVSYRTRDGEGPIHHGVCSSWLNRIQADELVPCFVRGAPSFHLPRNPQVPCILVGPGTGIAPFRSFWQQRQFDIQHKGMNPCPMVLVFGCRQSKIDHIYREETLQAKNKGVFRELYTAYSREPDKPKKYVQDILQEQLAESVYRALKEQGGHIYVCGDVTMAADVLKAIQRIMTQQGKLSAEDAGVFISRMRDDNRYHEDIFGVTLRTYEVTNRLRSESIAFIEESKKDTDEVFSS
As for B1, the “interdomain electron transfer FMN to heme in absence of CaM” value in assay [1] (absence of CaM, ref [51]) is reported as “No such redox event was observed”. The “rate of electron transfer” value in assay [1] was 40 to 50 s⁻¹.

B2: murine iNOS: murine inducible NOS (protein, UniProt P29477 1-1144, looked up)
Nitric oxide synthase, …: MACPWKFLFKVKSYQSDLKEEKDINNNVKKTPCAVLSPTIQDDPKSHQNGSPQLLTGTAQNVPESLDKLHVTSTRPQYVRIKNWGSGEILHDTLHHKATSDFTCKSKSCLGSIMNPKSLTRGPRDKPTPLEELLPHAIEFINQYYGSFKEAKIEEHLARLEAVTKEIETTGTYQLTLDELIFATKMAWRNAPRCIGRIQWSNLQVFDARNCSTAQEMFQHICRHILYATNNGNIRSAITVFPQRSDGKHDFRLWNSQLIRYAGYQMPDGTIRGDAATLEFTQLCIDLGWKPRYGRFDVLPLVLQADGQDPEVFEIPPDLVLEVTMEHPKYEWFQELGLKWYALPAVANMLLEVGGLEFPACPFNGWYMGTEIGVRDFCDTQRYNILEEVGRRMGLETHTLASLWKDRAVTEINVAVLHSFQKQNVTIMDHHTASESFMKHMQNEYRARGGCPADWIWLVPPVSGSITPVFHQEMLNYVLSPFYYYQIEPWKTHIWQNEKLRPRRREIRFRVLVKVVFFASMLMRKVMASRVRATVLFATETGKSEALARDLATLFSYAFNTKVVCMDQYKASTLEEEQLLLVVTSTFGNGDCPSNGQTLKKSLFMLRELNHTFRYAVFGLGSSMYPQFCAFAHDIDQKLSHLGASQLAPTGEGDELSGQEDAFRSWAVQTFRAACETFDVRSKHHIQIPKRFTSNATWEPQQYRLIQSPEPLDLNRALSSIHAKNVFTMRLKSQQNLQSEKSSRTTLLVQLTFEGSRGPSYLPGEHLGIFPGNQTALVQGILERVVDCPTPHQTVCLEVLDESGSYWVKDKRLPPCSLSQALTYFLDITTPPTQLQLHKLARFATDETDRQRLEALCQPSEYNDWKFSNNPTFLEVLEEFPSLHVPAAFLLSQLPILKPRYYSISSSQDHTPSEVHLTVAVVTYRTRDGQGPLHHGVCSTWIRNLKPQDPVPCFVRSVSGFQLPEDPSQPCILIGPGTGIAPFRSFWQQRLHDSQHKGLKGGRMSLVFGCRHPEEDHLYQEEMQEMVRKRVLFQVHTGYSRLPGKPKVYVQDILQKQLANEVLSVLHGEQGHLYICGDVRMARDVATTLKKLVATKLNLSEEQVEDYFFQLKSQKRYHEDIFGAVFSYGAKKGSALEEPKATRL
B2: in assay [1], the “interdomain electron transfer FMN to heme” value is 35 s⁻¹.
